≈ marks a conversion by molar mass, not a printed value. Where two headings read alike, the source gives them in different places.
Legend:
[1] = In vivo plasma pharmacokinetics in Balb-C mice (HPLC); conditions: for AUC(0-t): read-out: AUC0–24 h; for k el: read-out: Ke (converted)
Text: The pharmaceutical grade working standards of Dolutegravir were obtained as a gift from MSN Laboratories Hyderabad, India. The standard calibration of the pure drug in the mobile phase (Water: Acetonitrile: Methanol in 20:40:40 ratio with 0.2% formic acid) and mice plasma was plotted using the developed method. The plasma samples of untreated normal Balb/c mice were obtained from the Central Animal Facility, SASTRA Deemed University (Approval ID: 585/IAEC/RPP), and the plasma samples were spiked with known concentrations (1, 2, 3, 4, 5 and 10 µg/mL) of DTG and allowed to incubate at room temperature for 15 min. The detection was carried out at 260 nm with an injection volume of 20 μL, wherein the flow rate of the mobile phase was maintained at 1.0 mL/min at the column temperature of 35 °C. Moreover, the validation of the analytical method was also performed in accordance with the procedure referred to in the International Council on Harmonization (ICH) guidelines.
(§1) After validating the developed HPLC method, the same was utilized to quantify the drug present in the plasma and organ (lungs, liver, kidney, heart, brain, and uterus) samples collected at predetermined time points. A total of 114 animals (25–30 g) were acquired from the Central Animal Facility (CAF), SASTRA University, Thanjavur after obtaining the ethical approval from Institutional Animal Ethics Committee (IAEC). The animals were randomly divided into four groups (n = 6) for this study. All animals were housed in individual cages in a temperature-controlled facility. The surgical procedures were approved by IAEC at SASTRA University (585/SASTRA/IAEC/RPP). The experiments were performed following the guidelines issued by the Committee for the Purpose of Control and Supervision of Experiments on animals (CPCSEA), Ministry of Environment and Forest, Government of India and Animal Research: Reporting of In Vivo Experiments (ARRIVE). The 2 groups of mice were orally treated with pure DTG and DTG-loaded Chitosan NPs at the dose equivalent to 10 mg/kg[41] along with milk. The 3rd group of animals was treated with DTG at the same dose through an intravenous route to elucidate the absolute bioavailability and the 4th group of animals was reserved as untreated control for comparison. The blood and organ samples were withdrawn from all the experimental mice at 0.5 h, 3.5 h, 7 h, 14 h, 21 h, and 28 h after euthanizing the animal using CO2 inhalation. The concentration of the drug in each sample was determined by the developed HPLC method, followed by the pharmacokinetic parameters and biodistribution pattern evaluation.

[2] = Organ biodistribution of DTG in mice (HPLC); assay type: in vivo; conditions: mouse, Balb-C mice
Text: as §1

[3] = test system: blood cells; test: Haematological analysis (complete blood cell count) of treated animals; assay type: in vivo; conditions: Balb-C mice; for Basophils / Eosinophil / HCT / HGB / Lymphocyte / MCH / MCHC / MCV / MPV / Monocytes / Neutrophil / PCT / PDW / PLT / RBC / RDW-CV / RDW-SD / WBC: blood 28 h after administration
Procedure: The counting was made following the method of Beckman Coulter. It measures the changes in electrical resistance produced by non-conductive particles suspended in an electrolyte. The blood sample from the test animals was collected in EDTA tubes and was further suspended through a small orifice along with an electric current. At the sensing end, the suspended particle displaces its volume of electrolyte which was measured as the voltage pulse by the Beckman Coulter. The height of the voltage pulse in proportion to the volume of the blood cell. The white blood cells were quantified based on the VCS technology, where the individual cell volume (V), conductivity (C), and laser light scatter (S) were measured and the scattergram plotted the cell based on the above measurements.

[4] = In-vitro drug release in 0.1 N HCl media by dialysis bag method; assay type: physicochemical; conditions: 0.1 N HCl medium pH 1.2, dialysis bag, 37 °C
Procedure: The in vitro drug release study of the DTG-loaded Chitosan NPs was compared with the pure DTG in 0.1 N HCl pH 1.2 by dialysis bag method (Dialysis membrane Himedia, cut-off value—12–14 kDa). About 10 mg of pure drug and a similar dose equivalent amount of nanoparticles were taken for the drug release experiments. The test samples were mixed with 0.5 mL of the corresponding media, placed inside the dialysis bag, and immersed in 10 mL media in a vial. The temperature and magnetic stirring speed of the sample were retained at 37 °C ± 2 °C and 200 rpm, respectively throughout the 24 h study period. At every predetermined time point, the 10 mL samples were collected and immediately replaced with the fresh corresponding medium. The concentration of the drug in each sample was quantified by a UV–Visible spectrophotometer. The UV visible spectrophotometer (UV 1800, Shimadzu, Japan) was initialized with λmax of 260 nm. The absorbance of the test solution was recorded using the quartz cuvette (volume-3.5 mL, path length-1.5 cm) and the calculations were made based on the standard calibration curve by following the Beer Lamberts law. […] The drug release modelling was analysed using DD solver Software[36].

[5] = cited from earlier work
[6] = design: method as in earlier work; conditions: mice, single oral administration as suspension, plasma; ref 27 (Lee et al.); cited from earlier work
[7] = mouse, plasma, 10 mg/kg, intravenous route
[8] = mouse, plasma, oral dose equivalent to 10 mg/kg along with milk
[9] = plasma, oral dose equivalent to 10 mg/kg along with milk

## C[C@@H]1CCO[C@H]2Cn3cc(C(=O)NCc4ccc(F)cc4F)c(=O)c(O)c3C(=O)N12 [DTG, Dolutegravir]
[1]; Balb-C, mouse, plasma, iv, 10 mg/kg, plasma, 10 mg/kg, intravenous route, read-out: Cmax
  Cmax: 29300 ± 4010 ng/mL
[1]; Balb-C, mouse, plasma, po, 10 mg/kg, plasma, oral dose equivalent to 10 mg/kg along with milk, read-out: Cmax
  Cmax: 29300 ± 4010 ng/mL
[1]; [7]
  MRT: 12.07 ± 0.05 h
  Tmax: 7 h
  half-life: 10.5 ± 1.1 h
  AUC(0-t): 411000 ± 91000 ng·h/mL
  k el: 1.81e-05 s⁻¹
[1]; mouse, plasma, 10 mg/kg, intravenous route, read-out: Clearance (converted)
  clearance: 8.17 mL/min
[1]; mouse, plasma, 10 mg/kg, intravenous route, read-out: Vd
  Vd: 1.87 ± 0.81 L/kg
[1]; mouse, plasma, 10 mg/kg, oral
  AUC: 405000 ± 7000 ng·h/mL
[1]; [8]
  MRT: 10.1 ± 0.93 h
  Tmax: 7 h
  half-life: 11.7 ± 1.6 h
  AUC(0-t): 405000 ± 7000 ng·h/mL
  k el: 1.64e-05 s⁻¹
[1]; orally administered
  volume of distribution (Vd): 4.36 ± 0.78 L
[1]; plasma, 10 mg/kg, intravenous route
  Ka: 0.26 h⁻¹
[1]; [9]
  Cmax: 30150 ± 8060 ng/mL
  Ka: 0.48 h⁻¹
  Vd: 4.36 ± 0.78 L/kg
  clearance: 8 ± 5.5 mL/min
[2]; brain, IV, 10 mg/kg, read-out: AUC of biodistribution of DTG in brain
  AUC: 2400 ± 330 ng·h/mL
[2]; brain, oral with milk, 10 mg/kg equivalent, read-out: AUC of biodistribution of DTG in brain
  AUC: 2600 ± 500 ng·h/mL
[2]; heart, IV, 10 mg/kg, read-out: AUC of biodistribution of DTG in heart
  AUC: 2000 ± 380 ng·h/mL
[2]; heart, oral with milk, 10 mg/kg equivalent, read-out: AUC of biodistribution of DTG in heart
  AUC: 2100 ± 400 ng·h/mL
[2]; kidney, IV, 10 mg/kg, read-out: AUC of biodistribution of DTG in kidney
  AUC: 3800 ± 1300 ng·h/mL
[2]; kidney, oral with milk, 10 mg/kg equivalent, read-out: AUC of biodistribution of DTG in kidney
  AUC: 2200 ± 400 ng·h/mL
[2]; liver, IV, 10 mg/kg, read-out: AUC of biodistribution of DTG in liver
  AUC: 4600 ± 1200 ng·h/mL
[2]; liver, oral with milk, 10 mg/kg equivalent, read-out: AUC of biodistribution of DTG in liver
  AUC: 7200 ± 1400 ng·h/mL
[2]; lungs, IV, 10 mg/kg, read-out: AUC of biodistribution of DTG in lungs
  AUC: 4300 ± 680 ng·h/mL
[2]; lungs, oral with milk, 10 mg/kg equivalent, read-out: AUC of biodistribution of DTG in lungs
  AUC: 2500 ± 400 ng·h/mL
[2]; uterus, IV, 10 mg/kg, read-out: AUC of biodistribution of DTG in uterus
  AUC: 5500 ± 1200 ng·h/mL
[2]; uterus, oral with milk, 10 mg/kg equivalent, read-out: AUC of biodistribution of DTG in uterus
  AUC: 1500 ± 400 ng·h/mL
[3]; IV
  Basophils: 0.01 ± 0.02 10^3/µL
  Eosinophil: 0.06 ± 0.08 10^3/µL
  HCT: 55.83 ± 17.67%
  HGB: 13.70 ± 2.95 g/dL
  Lymphocyte: 12.83 ± 8.46 10^3/µL
  MCH: 16.23 ± 1.46 pg
  MCHC: 25.27 ± 3.33 g/dL
  MCV: 64.47 ± 2.75 fL
  MPV: 6.03 ± 0.15 fL
  Monocytes: 0.10 ± 0.07 10^3/µL
  Neutrophil: 5.15 ± 1.74 10^3/µL
  PCT: 0.50 ± 0.18%
  PDW: 15.23 ± 0.32
  PLT: 617.00 ± 27.89 10^3/µL
  RBC: 8.60 ± 2.47 10^6/µL
  RDW-CV: 15.37 ± 1.11%
  RDW-SD: 40.60 ± 4.25 fL
  WBC: 18.14 ± 10.24 10^3/µL
[3]; oral with milk
  Basophils: 0.00 10^3/µL
  Eosinophil: 0.04 ± 0.03 10^3/µL
  HCT: 63.77 ± 1.96%
  HGB: 15.10 ± 0.72 g/dL
  Lymphocyte: 12.30 ± 1.67 10^3/µL
  MCH: 15.57 ± 0.15 pg
  MCHC: 23.67 ± 0.15 g/dL
  MCV: 65.90 ± 4.10 fL
  MPV: 5.97 ± .06 fL
  Monocytes: 0.15 ± 0.06 10^3/µL
  Neutrophil: 5.32 ± 1.71 10^3/µL
  PCT: 0.52 ± 0.07%
  PDW: 15.17 ± 0.15
  PLT: 674.67 ± 42.91 10^3/µL
  RBC: 9.69 ± 0.48 10^6/µL
  RDW-CV: 15.47 ± 1.58%
  RDW-SD: 41.73 ± .90 fL
  WBC: 17.81 ± 3.38 10^3/µL
[3]; oral and IV administration, no statistically significant difference to control
  toxicity to the blood cells (haematology versus untreated control): non-toxic to the blood cells
[4]
  time taken to release 80% of the drug (T80): 20 h
[5]; 25 °C, no ref printed at the value
  aqueous solubility: 95 µg/mL (≈ 227 µM)
[5]; ref not given
  BCS class: BCS class II
[6]
  Cmax: 50000 ng/mL

Reference: article PMC9381509, “In-vivo pharmacokinetic studies of Dolutegravir loaded spray dried Chitosan nanoparticles as milk admixture for paediatrics infected with HIV” (Scientific Reports, 2022)
